Source: US6670348B1, “Methods and compositions for destruction of selected proteins” (Sloan-Kettering Institute for Cancer Research, priority 1997, dated 2003)

Experiments:
[1] = tested on: PI3 kinase; experiment: Inhibition of PI3 kinase activity; format: biochemical; settings: FIG. 12
[2] = tested on: Raf-1; experiment: Relative activity of FIG. 9A-9G compounds; format: cell-based; parameters: key: ++++: most active; −: minimal activity; settings: Table 4
From the text: The compounds of FIGS. 9A-9G have been tested for activity with respect to erbB2 (Her2), raf-1 and estrogen receptors.

[3] = tested on: insulin-like growth factor 1 receptor (IGF1-R); experiment: Immunoblotting for receptor presence in MCF-7 cells exposed to compound; format: cell-based; parameters: key to IGFI-R detected by immunoblotting: +: the receptor was detected by immunoblotting; −: it was not detectable; ±: a weak or equivocal result; settings: for IGFI-R detected by immunoblotting: Table 2
[4] = tested on: ErbB2; experiment: Immunoblotting for receptor presence in LNCaP prostate cancer cells; format: cell-based; parameters: key: +: the receptor was detected by immunoblotting; −: it was not detectable; ±: a weak or equivocal result; settings: Table 3
[5] = tested on: androgen receptor; experiment: as above; format: cell-based; parameters: key to androgen receptor detected by immunoblotting: +: the receptor was detected by immunoblotting; −: it was not detectable; ±: a weak or equivocal result; settings: for androgen receptor detected by immunoblotting: Table 3
[6] = tested on: Raf-1; experiment: Immunoblotting for receptor presence in MCF-7 cells exposed to compound; format: cell-based; parameters: key: +: the receptor was detected by immunoblotting; −: it was not detectable; ±: a weak or equivocal result
[7] = tested on: ErbB2; experiment: as above; format: cell-based; parameters: key: +: the receptor was detected by immunoblotting; −: it was not detectable; ±: a weak or equivocal result
[8] = target: T1, estrogen receptor (Homo sapiens, UniProt P03372); experiment: as above; format: cell-based
T1 construct: testing for the presence of the receptor using receptor-specific antibodies in an immunoblotting experiment; endogenous in cells; host or cells: MCF-7
Method: The effects of these compounds on receptor of various types were evaluated by exposing MCF-7 breast cancer cells, in vitro, to 1 μM levels of the compounds for varying periods of time, and then testing for the presence of the receptor using receptor-specific antibodies in an immunoblotting experiment.

[9] = target: T1, estrogen receptor; experiment: Relative activity of FIG. 9A-9G compounds; format: cell-based; parameters: key to the marks not given beside the values; settings: Table 4
[10] = tested on: estrogen receptors and ErbB2 receptors; experiment: Selectivity across receptor panel, immunoblotting in MCF-7 cells; format: cell-based; settings: 1 μM
Method: The effects of these compounds on receptor of various types were evaluated by exposing MCF-7 breast cancer cells, in vitro, to 1 μM levels of the compounds for varying periods of time, and then testing for the presence of the receptor using receptor-specific antibodies in an immunoblotting experiment. The results are summarized in Table 1, where GM-4-E2 indicates a geldanamycin-estradiol compound with a 4-carbon tether.

[11] = tested on: ErbB2; experiment: Immunoblotting of LN-CAP cells exposed to GM or GM-T (Example 2); format: cell-based; settings: immunoblotting over time, geldanamycin at 0.25 and 1 ug/ml, FIG. 8A
[12] = Example 5, exposure time 0 hours
[13] = Example 5, exposure time 6 hours
[14] = Example 5, exposure time 12 hours
[15] = Example 5, exposure time 24 hours
[16] = MCF-7 cells, 1 μM, exposure time 0 hours, Table 1
[17] = MCF-7 cells, 1 μM, exposure time 3 hours, Table 1
[18] = MCF-7 cells, 1 μM, exposure time 6 hours, Table 1
[19] = MCF-7 cells, 1 μM, exposure time 12 hours, Table 1
[20] = MCF-7 cells, 1 μM, exposure time 24 hours, Table 1
[21] = repeat experiment (Example 5), exposure time 0 hours, Table 2
[22] = repeat experiment (Example 5), exposure time 6 hours, Table 2
[23] = repeat experiment (Example 5), exposure time 12 hours, Table 2
[24] = repeat experiment (Example 5), exposure time 24 hours, Table 2

T1 sequence (P03372 whole entry): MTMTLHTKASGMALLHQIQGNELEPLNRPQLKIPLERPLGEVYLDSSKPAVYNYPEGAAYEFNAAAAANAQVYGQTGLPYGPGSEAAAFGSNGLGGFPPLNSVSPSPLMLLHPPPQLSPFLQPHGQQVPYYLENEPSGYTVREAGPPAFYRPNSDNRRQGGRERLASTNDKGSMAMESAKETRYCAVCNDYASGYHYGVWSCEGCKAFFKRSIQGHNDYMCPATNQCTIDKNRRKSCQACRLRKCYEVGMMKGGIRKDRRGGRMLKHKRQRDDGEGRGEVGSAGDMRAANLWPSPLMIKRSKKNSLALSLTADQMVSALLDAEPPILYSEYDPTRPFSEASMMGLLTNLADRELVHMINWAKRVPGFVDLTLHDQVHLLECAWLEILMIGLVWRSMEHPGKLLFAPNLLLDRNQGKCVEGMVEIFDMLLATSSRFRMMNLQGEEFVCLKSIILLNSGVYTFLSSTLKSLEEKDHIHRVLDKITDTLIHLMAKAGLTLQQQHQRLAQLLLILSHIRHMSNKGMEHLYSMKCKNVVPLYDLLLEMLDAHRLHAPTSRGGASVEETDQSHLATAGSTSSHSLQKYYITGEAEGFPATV

CCCCCCN(C)C=C1C(=O)OC(COC)C2(C)C1=C(O)C(=O)C1=C2C(OC(C)=O)CC2(C)C(=O)CCC12 (stereo not drawn) [E-analog 2]
inhibition of PI3 kinase activity [1]: inhibits PI3 kinase activity

COC1C=CC=C(C)C(=O)NC2=CC(=O)C(NCCCCCCC3(O)CCC4C5CCc6cc(O)ccc6C5CCC43C)=C(CC(C)CC(OC)C(O)C(C)C=C(C)C1OC(N)=O)C2=O (stereo not drawn) [FIG. 9E]
relative activity, raf-1 [2]: −

COC1C=CC=C(C)C(=O)NC2=CC(=O)C(NCCCCNCCCCCCC3(O)CCC4C5CCc6cc(O)ccc6C5CCC43C)=C(CC(C)CC(OC)C(O)C(C)C=C(C)C1OC(N)=O)C2=O (stereo not drawn) [FIG. 9F]
relative activity, raf-1 [2]: −

COC1C=CC=C(C)C(=O)NC2=CC(=O)C(NCCCCCCN(C)CCCCCCC3(O)CCC4C5CCc6cc(O)ccc6C5CCC43C)=C(CC(C)CC(OC)C(O)C(C)C=C(C)C1OC(N)=O)C2=O (stereo not drawn) [FIG. 9G]
relative activity, raf-1 [2]: −

COC1=C2C[C@@H](C)C[C@H](OC)[C@H](O)[C@@H](C)/C=C(\C)[C@H](OC(N)=O)[C@@H](OC)/C=C\C=C(/C)C(=O)NC(=CC1=O)C2=O [GM, geldanamycin, reference compound]
IGFI-R detected by immunoblotting [3, 12]: + | IGFI-R detected by immunoblotting [3, 13]: + | IGFI-R detected by immunoblotting [3, 14]: + | IGFI-R detected by immunoblotting [3, 15]: − | ErbB2 detected by immunoblotting ([4]; exposure time 0 hours): + | ErbB2 detected by immunoblotting ([4]; exposure time 3 hours): + | ErbB2 detected by immunoblotting ([4]; exposure time 6 hours): − | ErbB2 detected by immunoblotting ([4]; exposure time 12 hours): − | ErbB2 detected by immunoblotting ([4]; exposure time 24 hours): − | androgen receptor detected by immunoblotting ([5]; exposure time 0 hours): + | androgen receptor detected by immunoblotting ([5]; exposure time 3 hours): + | androgen receptor detected by immunoblotting ([5]; exposure time 6 hours): + | androgen receptor detected by immunoblotting ([5]; exposure time 12 hours): + | androgen receptor detected by immunoblotting ([5]; exposure time 24 hours): − | Raf-1 detected by immunoblotting [6, 16]: + | Raf-1 detected by immunoblotting [6, 17]: + | Raf-1 detected by immunoblotting [6, 18]: + | Raf-1 detected by immunoblotting [6, 19]: − | Raf-1 detected by immunoblotting [6, 20]: − | Raf-1 detected by immunoblotting [6, 21]: + | Raf-1 detected by immunoblotting [6, 22]: + | Raf-1 detected by immunoblotting [6, 23]: − | Raf-1 detected by immunoblotting [6, 24]: − | ErbB2 detected by immunoblotting [7, 16]: + | ErbB2 detected by immunoblotting [7, 17]: − | ErbB2 detected by immunoblotting [7, 18]: − | ErbB2 detected by immunoblotting [7, 19]: − | ErbB2 detected by immunoblotting [7, 20]: − | ErbB2 detected by immunoblotting [7, 21]: + | ErbB2 detected by immunoblotting [7, 22]: − | ErbB2 detected by immunoblotting [7, 23]: − | ErbB2 detected by immunoblotting [7, 24]: −

COC1C=CC=C(C)C(=O)NC2=CC(=O)C(NCC=CCC3CC4C5CCc6cc(O)ccc6C5CCC4(C)C3O)=C(CC(C)CC(OC)C(O)C(C)C=C(C)C1OC(N)=O)C2=O (stereo not drawn) [GM-4-E2]
estrogen receptor detected by immunoblotting [8, 16]: + | estrogen receptor detected by immunoblotting [8, 17]: ± | estrogen receptor detected by immunoblotting [8, 18]: − | estrogen receptor detected by immunoblotting [8, 19]: − | estrogen receptor detected by immunoblotting [8, 20]: − | estrogen receptor detected by immunoblotting [8, 21]: + | estrogen receptor detected by immunoblotting [8, 22]: − | estrogen receptor detected by immunoblotting [8, 23]: − | estrogen receptor detected by immunoblotting [8, 24]: − | relative activity, estrogen receptor [9]: ++++ | relative activity, raf-1 [2]: − | IGFI-R detected by immunoblotting [3, 12]: + | IGFI-R detected by immunoblotting [3, 13]: + | IGFI-R detected by immunoblotting [3, 14]: + | IGFI-R detected by immunoblotting [3, 15]: + | effect on IGF1-R compared with geldanamycin alone ([3]; Example 5, in words): less injurious to IGF1-R than geldanamycin alone | ErbB2 detected by immunoblotting ([4]; exposure time 0 hours): + | ErbB2 detected by immunoblotting ([4]; exposure time 3 hours): + | ErbB2 detected by immunoblotting ([4]; exposure time 6 hours): + | ErbB2 detected by immunoblotting ([4]; exposure time 12 hours): − | ErbB2 detected by immunoblotting ([4]; exposure time 24 hours): − | androgen receptor detected by immunoblotting ([5]; exposure time 0 hours): + | androgen receptor detected by immunoblotting ([5]; exposure time 3 hours): + | androgen receptor detected by immunoblotting ([5]; exposure time 6 hours): + | androgen receptor detected by immunoblotting ([5]; exposure time 12 hours): + | androgen receptor detected by immunoblotting ([5]; exposure time 24 hours): + | destruction of androgen receptors ([5]; in words): does not | selectivity for estrogen receptors and ErbB2 receptors compared to geldanamycin alone [10]: most pronounced | Raf-1 detected by immunoblotting [6, 16]: + | Raf-1 detected by immunoblotting [6, 17]: + | Raf-1 detected by immunoblotting [6, 18]: + | Raf-1 detected by immunoblotting [6, 19]: + | Raf-1 detected by immunoblotting [6, 20]: + | Raf-1 detected by immunoblotting [6, 21]: + | Raf-1 detected by immunoblotting [6, 22]: + | Raf-1 detected by immunoblotting [6, 23]: + | Raf-1 detected by immunoblotting [6, 24]: + | ErbB2 detected by immunoblotting [7, 16]: + | ErbB2 detected by immunoblotting [7, 17]: ± | ErbB2 detected by immunoblotting [7, 18]: − | ErbB2 detected by immunoblotting [7, 19]: − | ErbB2 detected by immunoblotting [7, 20]: − | ErbB2 detected by immunoblotting [7, 21]: + | ErbB2 detected by immunoblotting [7, 22]: ± | ErbB2 detected by immunoblotting [7, 23]: − | ErbB2 detected by immunoblotting [7, 24]: −

COC1C=CC=C(C)C(=O)NC2=CC(=O)C(NCCCCNCCCCCCC3(O)CCC4C5CCc6cc(O)ccc6C5CCC43C)=C(CC(C)CC(OC)C(O)C(C)C=C(C)C1OC(N)=O)C2=O (stereo not drawn) [GM-10-E2]
estrogen receptor detected by immunoblotting [8, 16]: + | estrogen receptor detected by immunoblotting [8, 17]: + | estrogen receptor detected by immunoblotting [8, 18]: + | estrogen receptor detected by immunoblotting [8, 19]: ± | estrogen receptor detected by immunoblotting [8, 20]: + | Raf-1 detected by immunoblotting [6, 16]: + | Raf-1 detected by immunoblotting [6, 17]: + | Raf-1 detected by immunoblotting [6, 18]: + | Raf-1 detected by immunoblotting [6, 19]: + | Raf-1 detected by immunoblotting [6, 20]: + | ErbB2 detected by immunoblotting [7, 16]: + | ErbB2 detected by immunoblotting [7, 17]: + | ErbB2 detected by immunoblotting [7, 18]: + | ErbB2 detected by immunoblotting [7, 19]: + | ErbB2 detected by immunoblotting [7, 20]: −

COC1C=CC=C(C)C(=O)NC2=CC(=O)C(NCCCCCCN(C)CCCCCCC3(O)CCC4C5CCc6cc(O)ccc6C5CCC43C)=C(CC(C)CC(OC)C(O)C(C)C=C(C)C1OC(N)=O)C2=O (stereo not drawn) [GM-13-E2]
estrogen receptor detected by immunoblotting [8, 16]: + | estrogen receptor detected by immunoblotting [8, 17]: + | estrogen receptor detected by immunoblotting [8, 18]: + | estrogen receptor detected by immunoblotting [8, 19]: ± | estrogen receptor detected by immunoblotting [8, 20]: − | Raf-1 detected by immunoblotting [6, 16]: + | Raf-1 detected by immunoblotting [6, 17]: + | Raf-1 detected by immunoblotting [6, 18]: + | Raf-1 detected by immunoblotting [6, 19]: + | Raf-1 detected by immunoblotting [6, 20]: + | ErbB2 detected by immunoblotting [7, 16]: + | ErbB2 detected by immunoblotting [7, 17]: + | ErbB2 detected by immunoblotting [7, 18]: + | ErbB2 detected by immunoblotting [7, 19]: + | ErbB2 detected by immunoblotting [7, 20]: −

COC1C=CC=C(C)C(=O)NC2=CC(=O)C(NCCCCCCC#CC3(O)CCC4C5CCC6=CC(=O)CCC6(C)C5CCC43C)=C(CC(C)CC(OC)C(O)C(C)C=C(C)C1OC(N)=O)C2=O (stereo not drawn) [GM-T, 17-testosterone-tethered-17-demethoxy-17-GM]
reduction of levels of ErbB2 [11]: the least reduction was observed

CCCCCCNC=C1C(=O)OC(COC)C2(C)C1=C(O)C(=O)C1=C2C(OC(C)=O)CC2(C)C(=O)CCC12 (stereo not drawn) [Z-analog 1]
inhibition of PI3 kinase activity [1]: inactive
